Read-outs that look alike come from different tables or passages of the source.
Columns and labels:
[1] = Cytotoxic activity toward tumor cell line A549; format: cell-based; conditions: human, A549 tumor cells
[2] = Cytotoxic activity toward tumor cell line SMMC7721; format: cell-based; conditions: human, SMMC7721 tumor cells
[3] = system: caspase-14; test: Expression of caspase-14 in HaCaT cells (qRT-PCR); format: cell-based; conditions: HaCaT cells, 20, 10, 5 μM, 72 h, dose dependent
Method: (§1) HaCaT cells were cultured with DMEM in 6-well plate at 1 × 10^5 cells/well for 24 h, then treated with 20, 10, 5 μM of compounds 1–7 for 72 h. Total RNA of HaCaT cells were extracted using RNA Miniprep kit (Biomiga) according to the manufacturer's instruction. Then total RNA was reverse transcribed using PrimeScript RT reagent Kit (Takara, Dalian, China). PCR amplification was performed on an StepOne Plus real time PCR system (Applied Biosystems, Foster City, CA) using the SYBR Green Master Mix (Applied Biosystems, Foster City, CA). All experiments were performed in triplicate, and the relative levels of assayed mRNAs were calculated with the delta–delta CT method using ACTIN expressions as endogenous control, and normalized to non-treated control. […]
(§2) delta‒delta CT method using lamivudine expressions as positive control, and normalized to non-treated control.
(§3) 9. Assay for protective effects on skin barrier functions in in vitro
(§4) HaCaT cells were cultured with DMEM in 6-well plate at 1×10^5 cells/well for 24 h, then treated with 20, 10, 5 µM of compounds 1‒8 for 72 h. […]
(§5) All experiments were performed in triplicate, and the relative levels of assayed mRNAs were calculated with the delta‒delta CT method using ACTIN expressions as endogenous control, and normalized to non-treated control.

[4] = Cell viability of RAW264.7 macrophages (MTT method); format: cell-based, mouse; conditions: mouse
Method: (§6) 7. Assay for inhibition toward nitric oxide production in RAW264.7 macrophages The experiment was conducted according to a literature procedure.1 Murine monocytic RAW264.7 cells grown in 96-well cell culture plates (2 × 10^5 cells/well) and pretreated with serial concentrations of the compounds 1‒8 for 30 min, followed by stimulation with LPS (1 μg/mL) under a humidified atmosphere with 5% CO2 at 37°C. After 24 h, the NO production of the supernatant was determined by adding the 100 μL of Griess reagent. Subsequently, the MTT
(§7) [3-(4,5-dimethylthiazol-2-yl)-2,5-diphenyltetrazolium bromide] reduction2 was used to evaluate the cell viability, and results were expressed as the mean value of triplicate determinations. The positive control was aminoguanidine.2 […]

[5] = system: NO production in LPS-induced RAW 264.7 macrophages; test: Inhibition of LPS induced NO production in RAW264.7 macrophages (Griess reagent); format: cell-based, mouse
Method: All compounds were assayed by measuring the inhibitory effects on NO production induced by LPS in mouse macrophage RAW 264.7 cells. The RAW 264.7 cells were seeded in each well of a 96-well plate at a concentration of 5 × 10^5 cells/ml in DMEM medium containing 10% fetal bovine serum, 2 mmol/l glutamine, 100 U/ml penicillin, and 100 μg/ml streptomycin. After incubation at 37°C in a humidified atmosphere of 5% CO2 air for 12 h, cells were treated with LPS (1 μg/ml) and compounds ([…], and compound was dissolved in DMSO to dilute until the final DMSO concentration <0.1%, v/v), then incubation for 24 h at 37°C. NO production was determined by measuring the quantity of nitrite in the culture medium by the Griess reagent. Aminoguanidine was selected as a positive control. A 50 μl of the supernatant of culture medium was mixed with 100 μl of the Griess reagent. Using nitrite to generate a standard curve, nitrite production was measured by a microplate reader at 540 nm. Cell viability was examined by the MTT method (Wu et al., [2016]). The compounds with inhibitory rate more than 50% at a dose of 50 μg/ml were further detected in the gradient concentrations to calculate IC50 values. […]
as §6, §7

[6] = system: HaCaT cells; test: Protection against UVB-induced cell damage in HaCaT cells (MTT assay); format: cell-based; conditions: Homo sapiens, HaCaT, light or radiation study, 24 h, read-out: cell viability after UVB irradiation
Method: HaCaT cells were seeded at 5 × 10^5 cells per well in 6-well plates and incubated under starvation conditions for 24 h using serum-free MEM. HaCaT cells were exposed to UVB irradiation (UVB lamp: SUV-1000, Sigma-China) at a dose of 30 mJ/cm^2. After UVB irradiation, DMEM medium containing 1 (20 μM) or epigallocatechin gallate (20 μM) was added and the cells were incubated for 24 h, and then the MTT assay was performed.

[7] = system: filaggrin; test: Expression of filaggrin in HaCaT cells (qRT-PCR); format: cell-based; conditions: HaCaT cells, 20, 10, 5 μM, 72 h, dose dependent
Method: as §1, §2, §3, §4, §5

[8] = Cytotoxic activity toward tumor cell line U937; format: cell-based; conditions: human, U937 tumor cells
[9] = system: HBV virus in HepG2.2.15 cells; test: In vitro anti-HBV effects (HBV DNA, real time PCR); format: cell-based; conditions: 10 μM
Method: HepAD38 cells were cultured with DMEM in 48-well plate at 1 × 10^5 cells/well for 24 h, then treated with 10 μM of each compound for 72 h. After 4 days, the cells were washed with precooled PBS for 2 times. HBV progeny DNA of HepAD38 cells were extracted using QIAamp DNA Blood Mini kit (Biomiga) according to the manufacturer's instruction. Total DNA was reversely transcribed using PrimeScript RT reagent Kit (Takara, Dalian, China). PCR amplification was performed on an StepOne Plus real time PCR system (Applied Biosystems, Foster City, CA) using the SYBR Green Master Mix (Applied Biosystems, Foster City, CA). All experiments were performed in triplicate, and the relative levels of assayed HBV DNA were calculated with the delta–delta CT method using lamivudine as a positive control, and normalized to non-treated control. […]
8. Assay for in vitro anti-HBV effects
HepG2. 2. 15 cells were cultured with DMEM in 48-well plate at 1×10^5 cells/well for 24 h, then treated with 10 µM of compounds for 72 h. At d 4, these cells were washed 2 times with precooled PBS, and treated with 10 µM of compounds for 72 h.
HBV progeny DNA of HepG2. 2. 15 cells were extracted using QIAamp DNA Blood Mini kit (Biomiga) according to the manufacturer's instruction. Then total DNA was reverse transcribed using PrimeScript RT reagent Kit (Takara, Dalian, China). The primers were designed and synthesized by Takara, and the sequences of the primers […]
PCR amplification was performed on an StepOne Plus real time PCR system (Applied Biosystems, Foster City, CA) using the SYBR Green Master Mix (Applied Biosystems, Foster City, CA). All experiments were performed in triplicate, and the relative levels of assayed HBV DNA were calculated with the […]
delta‒delta CT method using lamivudine expressions as positive control, and normalized to non-treated control. […]
(Takara, Dalian, China). The primers were designed and synthesized by Takara, the […]
performed on an StepOne Plus real time PCR system (Applied Biosystems, Foster City, CA) using the SYBR Green Master Mix (Applied Biosystems, Foster City, CA). […]

[10] = system: RAW264.7 macrophages; test: Cell viability of RAW264.7 macrophages (MTT method); format: cell-based, mouse; conditions: RAW264.7, MTT; Table 3; read-out: CC50 (μM) Cytotoxicity
Method: as §6, §7

SMILES	IC50 [1]	IC50 [2]	expression of caspase-14 [3]	CC50 at 24 h ([4]; RAW264.7, MTT, Table 3, read-out: CC50 (μM) Cytotoxicity)	CC50 at 24 h ([4]; Table S9 of the supplement, read-out: CC50 (M), 50% cytotoxic concentration)	IC50 ([5]; Mus musculus, RAW264.7, read-out: IC50 (M), 50% inhibitory concentration)	viability at 20 µM [6]	expression of filaggrin [7]	IC50 [8]	inhibitory rate of DNA expression of the HBV virus [9]	CC50 [10]	NO inhibition % (50 μM) ([5]; 50 μM, LPS 1 μg/ml, 24 h)	IC50 ([5]; LPS 1 μg/ml, 24 h, Table 3, read-out: IC50 (μM) NO)	inhibition toward NO production (in words) ([5]; LPS-induced RAW 264.7 macrophages)
C=C1[C@@]2(C)C[C@H]3[C@]4(C)[C@H](O)[C@@H]5C[C@@](C)(OC5=O)[C@H]4CC[C@]3(C)[C@]1(C(=O)OC)C(=O)[C@@](C)(O)C2=O [Compound 1, methyl (1R, 2S, 5R, 5aS, 7aS, 8R, 10S, 12R, 13aR, 13bS)-1, 10-dihydroxy-5,7a,10,12,13b-pentamethyl-14-methylene-3,9,11-trioxotetradecahydro-2,5:8,12-dimethanocycloocta[3,4]benzo[1,2-c]oxepine-8(5H)-carboxylate]	> 10 µM	> 10 µM	significantly stimulated	> 100 µM	> 50 µM	> 5e-05 M	77%	significantly stimulated	> 10 µM	–	–	–	–	–
C=C1C2(C)CC3C4(C)C=CC(=O)OC(C)(C)C4CCC3(C)C13C(=O)OC(C)C3(O)C2=O [Compound 3, (5aS, 5bS, 7R, 8aR, 9R, 11aR, 11bS, 13aS)-8a-hydroxy-1,1,5a, 7,9,11b-hexamethyl-14-methylene-5a,5b,6,7,8a,9,11b,12,13,13a-decahydro-1H,11H-7, 11a-methanofuro[3″,4″:3′,4′]cyclohepta[1′,2′:3,4]benzo[1,2-c]oxepine-3,8,11-trione]	–	–	–	–	–	–	–	–	–	25%	> 100 µM	65%	3.38e-05 ± 3.13e-06 M	moderate inhibition
